Where only a bound is given, the exact number is not on record here.

From PMC6528465 (ACS infectious diseases, 2018) come the findings set out here.

In series [1] the test system is Mtb H37Rv. The class given is cell-based, Mycobacterium tuberculosis. Particulars: no inhibitor.
Series [2] relates to A549 (lung). As to the kind of experiment: Mammalian cytotoxicity A549. The class given is cell-based. Particulars: 1% v/v in 0.5% DMSO.
Series [3] relates to HEK-293 (kidney). As to the kind of experiment: Mammalian cytotoxicity HEK-293. The class given is cell-based. The note with it: 1% v/v in 0.5% DMSO.
Series [4] has as its system J774A.1 (macrophage). As to the kind of experiment: Mammalian cytotoxicity J774A.1. The format is cell-based. The note with it: 1% v/v in 0.5% DMSO.

Regarding `NC[C@H]1O[C@H](O[C@H]2[C@H](O)[C@@H](O[C@H]3O[C@H](CO)[C@@H](O)[C@H](N)[C@H]3O)[C@H](N)C[C@@H]2N)[C@H](O)[C@@H](O)[C@@H]1O` [KAN, kanamycin], in series [1], the “H37RV MICKAN” value was under 1.25 µg/mL.

Turning to Triton-X 100, the “cell survival (positive control)” value in series [2], in series [3] and in series [4] was under 5% each time.
